According to patent US20040077881A1, “$G(d)1-pyrrolines used in pest control” (priority 2001, published 2004):
Like-named read-outs stand apart in the source and are kept apart here.

Experiments:
[1] = test system: greenhouse red spider mite (Tetranychus urticae); assay: Tetranychus test (OP-resistant/dip treatment); assay type: in vivo; conditions: 100 ppm, bean plants dipped, OP-resistant
Experimental: [table] To produce a suitable preparation of active compound, 1 part by weight of active compound is mixed with the stated amounts of solvent and emulsifier, and the concentrate is diluted with emulsifier-containing water to the desired concentration. Bean plants (Phaseolus vulgaris) which are heavily infested by all stages of the greenhouse red spider mite (Tetranychus urticae) are dipped into a preparation of active compound of the desired concentration. After the desired period of time, the effect in % is determined. 100% means that all spider mites have been killed; 0% means that none of the spider mites have been killed.

[2] = logP determination by HPLC (EEC directive 79/831 Annex V.A8, reversed-phase C 18); assay type: physicochemical; conditions: for chromatographic logP: reversed-phase HPLC column (C 18); for log P2: second HPLC peak of the mixture of diastereomers
Experimental: The stated logP values were determined in accordance with EEC directive 79/831 Annex V.A8 by HPLC (High Performance Liquid Chromatography) using a reversed-phase column (C 18). Temperature: 43° C. In the acidic range, the determination was carried out at pH 2.3 using the mobile phases 0.1% aqueous phosphoric acid and acetonitrile; linear gradient from 10% acetonitrile to 90% acetonitrile.

[3] = test system: larvae of the mustard beetle (Phaedon cochleariae); assay: Phaedon larvae test; assay type: in vivo; conditions: 168 h, cabbage leaves dipped, after 7 d, read-out: Kill rate in % after 7 d
Experimental: [table] To produce a suitable preparation of active compound, 1 part by weight of active compound is mixed with the stated amounts of solvent and emulsifier, and the concentrate is diluted with emulsifier-containing water to the desired concentration. Cabbage leaves (Brassica oleracea) are treated by being dipped into the preparation of active compound of the desired concentration and are populated with larvae of the mustard beetle (Phaedon cochleariae) whilst the leaves are still moist. After the desired period of time, the kill in % is […]. 100% means that all beetle larvae have been killed; 0% means that none of the beetle larvae have been killed.

[4] = pH 2.3, HPLC, reversed-phase column (C 18), 43° C., pH 2.3, 0.1% aqueous phosphoric acid/acetonitrile, read-out: log P
[5] = pH 2.3, first HPLC peak of the mixture of diastereomers, reversed-phase C 18, 43° C., pH 2.3, read-out: log P1
[6] = pH 2.3, second HPLC peak of the mixture of diastereomers, reversed-phase C 18, 43° C., pH 2.3, read-out: log P2
[7] = reversed-phase C 18, 43° C., pH 2.3

O=S(=O)(Oc1ccc([C@H]2CC(Br)C(c3c(F)cccc3F)=N2)cc1)C(F)(F)F (some centres unmarked) [drawing 81]
Kill rate in % after 7 d [1]: 98%

CC(C)(C)OC(=O)N1C(=O)C(C)(C)CC1c1ccc(-c2ccc(OC(F)(F)F)cc2)cc1 (centres unmarked) [tert-butyl 3,3-dimethyl-2-oxo-5-[4′-(trifluoromethoxy)-1,1′-biphenyl-4-yl]-1-pyrrolidinecarboxylate]
chromatographic logP ([2]; HPLC, reversed-phase column (C 18), 43° C., pH 2.3, 0.1% aqueous phosphoric acid/acetonitrile, read-out: log P): 4.99

Fc1cccc(F)c1C1=N[C@@H](c2ccc(-c3ccc(OC(F)(F)F)cc3)cc2)CC1(Br)Br [drawing 79]
Kill rate in % after 7 d [1]: 98%

Fc1cccc(F)c1C1=N[C@@H](c2ccc(-c3ccc(OC(F)(F)F)cc3)cc2)CC1(Br)Br [drawing 59]
pest or weed control at 1000 ppm [3]: 100%

Fc1cccc(F)c1C1=NC(c2ccc(-c3ccc(OC(F)(F)F)cc3)cc2)CC1Cl (centres unmarked) [drawing 77]
Kill rate in % after 7 d [1]: 98%

O=S(=O)(Oc1ccc(-c2ccc([C@H]3C[C@H](Cl)C(c4c(F)cccc4F)=N3)cc2)cc1)C(F)(F)F [Example 7, 4′-[(2R)-4-chloro-5-(2,6-difluorophenyl)-3,4-dihydro-2-yl]-1,1′-biphenyl-4-yl trifluoromethanesulphonate]
chromatographic logP [2, 4]: 5.22

O=S(=O)(Oc1ccc([C@H]2CC(Cl)(Cl)C(c3c(F)cccc3F)=N2)cc1)C(F)(F)F [drawing 62]
pest or weed control at 1000 ppm [3]: 100%

O=S(=O)(O)C1CC(c2ccc(Br)cc2)N=C1c1c(F)cccc1F (centres unmarked) [Example 12, 2-(4-bromophenyl)-5-(2,6-difluorophenyl)-3,4-dihydro-2H-pyrrole-4-sulphonic acid]
chromatographic logP [2, 5]: 1.4
chromatographic logP [2, 6]: 1.6

O=S(=O)(Oc1ccc([C@H]2CC(Br)(Br)C(c3c(F)cccc3F)=N2)cc1)C(F)(F)F [Example 9, 4-[(2R)-4,4-dibromo-5-(2,6-difluorophenyl)-3,4-dihydro-2H-pyrrol-2-yl]phenyl-trifluoromethanesulphonate]
chromatographic logP [2, 4]: 4.97

Fc1cccc(F)c1C1=N[C@@H](c2ccc(-c3ccc(OC(F)(F)F)cc3)cc2)C/C1=C\c1ccc(Br)cc1 [drawing 60]
pest or weed control at 1000 ppm [3]: 100%

O=S(=O)(Oc1ccc([C@H]2CC(Br)C(c3c(F)cccc3F)=N2)cc1)C(F)(F)F (some centres unmarked) [drawing 63]
pest or weed control at 1000 ppm [3]: 100%

O=S(=O)(Oc1ccc([C@H]2CC(Cl)(Cl)C(c3c(F)cccc3F)=N2)cc1)C(F)(F)F [Example 5]
chromatographic logP [2, 4]: 4.88

Fc1cccc(F)c1C1=NC(c2ccc(-c3ccc(OC(F)(F)F)cc3)cc2)CC1(Cl)Cl (centres unmarked) [drawing 56]
pest or weed control at 1000 ppm [3]: 100%

O=S(=O)(O)C1CC(c2ccc(-c3ccc(OC(F)(F)F)cc3)cc2)N=C1c1c(F)cccc1F (centres unmarked) [Example 13, 5-(2,6-difluorophenyl)-2-[4′-(trifluoromethoxy)-1,1′-biphenyl-4-yl]-3,4-dihydro-2H-pyrrole-4-sulphonic acid]
log P1 ([2]; first HPLC peak of the mixture of diastereomers, reversed-phase C 18, 43° C., pH 2.3): 2.29
chromatographic logP [2, 5]: 2.32
chromatographic logP [2, 6]: 2.46

Fc1cccc(F)c1C1=N[C@@H](c2ccc(-c3ccc(OC(F)(F)F)cc3)cc2)CC1Cl (stereo partly drawn) [Example 2, (2R)-4-chloro-5-(2,6-difluorophenyl)-2-[4′-(trifluoromethoxy)-1,1′-biphenyl-4-yl]-3,4-dihydro-2H-pyrrole]
chromatographic logP [2, 5]: 5.31
log P2 [2, 7]: 5.39

Fc1cccc(F)c1C1=NC(c2ccc(-c3ccc(OC(F)(F)F)cc3)cc2)CC1Cl (centres unmarked) [drawing 57]
pest or weed control at 1000 ppm [3]: 100%

Fc1cccc(F)c1C1=N[C@@H](c2ccc(-c3ccc(OC(F)(F)F)cc3)cc2)CC1(Cl)Cl [drawing 58]
pest or weed control at 1000 ppm [3]: 100%

O=S(=O)(Oc1ccc([C@H]2CC(Br)C(c3c(F)cccc3F)=N2)cc1)C(F)(F)F (stereo partly drawn) [Example 8, 4-[(2R)-4-bromo-5-(2,6-difluorophenyl)-3,4-dihydro-2-pyrrol-2-yl]phenyl-trifluoromethanesulphonate]
chromatographic logP [2, 5]: 4.39
chromatographic logP [2, 6]: 4.49

Fc1cccc(F)c1C1=NC(c2ccc(-c3ccc(OC(F)(F)F)cc3)cc2)CC1Cl (centres unmarked) [Example 1, 4-chloro-5-(2,6-difluorophenyl)-2-[4′-(trifluoromethoxy)-1,1′-biphenyl-4-yl]-3,4-dihydro-2H-pyrrole]
chromatographic logP [2, 5]: 5.31
log P2 [2, 7]: 5.39

CC1(C)CC(c2ccc(-c3ccc(OC(F)(F)F)cc3)cc2)N=C1c1c(F)cccc1F (centres unmarked) [Example 11, 4,4-dimethyl-5-(2,6-difluorophenyl)-2-[4′-(trifluoromethoxy)-1,1′-biphenyl-4-yl]-3,4-dihydro-2H-pyrrole]
chromatographic logP [2, 4]: 5.67

O=S(=O)(Oc1ccc([C@H]2CC(Cl)(Cl)C(c3c(F)cccc3F)=N2)cc1)C(F)(F)F [drawing 82]
Kill rate in % after 7 d [1]: 95%

Fc1cccc(F)c1C1=N[C@@H](c2ccc(-c3ccc(OC(F)(F)F)cc3)cc2)CC1(Cl)Cl [Example 6, (2R)-4,4-dichloro-5-(2,6-difluorophenyl)-2-[4′-(trifluoromethoxy)-1,1′-biphenyl-4-yl]-3,4-dihydro-2H-pyrrole]
chromatographic logP [2, 4]: 5.91

Fc1cccc(F)c1C1=NC(c2ccc(-c3ccc(OC(F)(F)F)cc3)cc2)CC1=Cc1ccccc1 (centres unmarked) [Example 16, 4-benzylidene-5-(2,6-difluorophenyl)-2-[4′-(trifluoromethoxy)-1,1′-biphenyl-4-yl]-3,4-dihydro-2H-pyrrole]
chromatographic logP [2, 4]: 5.77

O=S(=O)(Oc1ccc([C@H]2CC(Cl)C(c3c(F)cccc3F)=N2)cc1)C(F)(F)F (stereo partly drawn) [Example 3, 4-[(2R)-4-chloro-5-(2,6-difluorophenyl)-3,4-dihydro-2H-pyrrol-2-yl]phenyl-trifluoromethanesulphonate]
chromatographic logP [2, 5]: 4.34
log P2 [2, 7]: 4.40

CC(C)(C)OC(=O)NC(CC(C)(C)C(=O)c1c(F)cccc1F)c1ccc(-c2ccc(OC(F)(F)F)cc2)cc1 (centres unmarked) [tert-butyl 4-(2,6-difluorophenyl)-3,3-dimethyl-4-oxo-1-[4′-(trifluoromethoxy)-1,1′-biphenyl-4-yl]butylcarbamate]
chromatographic logP [2, 4]: 6.45

Fc1cccc(F)c1C1=N[C@@H](c2ccc(-c3ccc(OC(F)(F)F)cc3)cc2)CC1=Cc1ccc(Br)cc1 [Example 14, (2R)-4-(4-bromobenzylidene)-5-(2,6-difluorophenyl)-2-[4′-(trifluoromethoxy)-1,1′-biphenyl-4-yl]-3,4-dihydro-2H-pyrrole]
chromatographic logP [2, 4]: 6.43

CCOS(=O)(=O)C1CC(c2ccc(-c3ccc(OC(F)(F)F)cc3)cc2)N=C1c1c(F)cccc1F (centres unmarked) [Example 15, ethyl 5-(2,6-difluorophenyl)-2-[4′-(trifluoromethoxy)-1,1′-biphenyl-4-yl]-3,4-dihydro-2H-pyrrole-4-sulphonate]
chromatographic logP [2, 4]: 4.77

O=S(=O)(Oc1ccc(-c2ccc([C@H]3C[C@H](Cl)C(c4c(F)cccc4F)=N3)cc2)cc1)C(F)(F)F [drawing 64]
pest or weed control at 1000 ppm [3]: 100%

Fc1cccc(F)c1C1=N[C@@H](c2ccc(-c3ccc(OC(F)(F)F)cc3)cc2)CC1(Br)Br [Example 10, (2R)-4,4-dibromo-5-(2,6-difluorophenyl)-2-[4′-(trifluoromethoxy)-1,1′-biphenyl-4-yl]-3,4-dihydro-2H-pyrrole]
chromatographic logP [2, 4]: 6.01

O=S(=O)(Oc1ccc([C@H]2CC(Cl)C(c3c(F)cccc3F)=N2)cc1)C(F)(F)F (some centres unmarked) [drawing 61]
pest or weed control at 1000 ppm [3]: 100%

CC(C)C=C1CC(c2ccc(-c3ccc(OC(F)(F)F)cc3)cc2)N=C1c1c(F)cccc1F (centres unmarked) [Example 17, 4-(2-methylpropylidene)-5-(2,6-difluorophenyl)-2-[4′-(trifluoromethoxy)-1,1′-biphenyl-4-yl]-3,4-dihydro-2H-pyrrole]
chromatographic logP [2, 4]: 5.8
